Columns and labels:
Assay in all cases: whole-cell patch clamp
Type in all cases: cell-based
α3β2γ2 GABAA receptor = details: inhibition of current by EC30 GABA; -60 mV, pH 7.3, 22-25 °C; called competitive
α1β2 GABAA receptor [1] = details: EC30 GABA, TM2 6' position, -60 mV, pH 7.3
α1β2 GABAA receptor [2] = details: EC30 GABA (0.5 μM), -60 mV, pH 7.3
α6β2γ2 GABAA receptor = details: EC30 GABA (1 μM), -60 mV, pH 7.3, biphasic effect

IC50 (α3β2γ2 GABAA receptor): 14 ± 6.3 µM
SMILES: O=C1Nc2ccc(Cl)cc2[C@@](C#CC2CC2)(C(F)(F)F)O1 [Efavirenz]
% of control end-application current at 30 μM (α1β2 GABAA receptor [1]): 95 ± 18%
% of control end-application current at 30 μM (α1β2 GABAA receptor [2]): 1.6 ± 1.7%
% of control end-application current at 30 μM (α6β2γ2 GABAA receptor): 46 ± 6.1%
